{"source": "patent US8859587B2", "about": "“(2E)-3-phenyl-N-[2,2,2-Trifluoro-1-[[8-quinolineamino)thiomethyl]amino]ethyl]-2-acrylamide and pharmaceutical uses thereof” (Chinese PLA General Hospital, priority 2010, dated 2014)", "key": {"[1]": {"tested_on": "caspase-12 and cleaved caspase-12", "assay": "Western blot of caspase-12 and cleaved caspase-12 in TM-induced cardiac muscle cells", "format": "cell-based, Wistar rats", "procedure": "(12000 rpm×10 min), collected supernatant. Nitrocellulose membrane was dipped in a transferring buffer for 15-20 min in advance. Sampled in 50 μg protein/lane, subjected to 10% polyacrylamide gel SDS-PAGE electrophoretic separation, the gel was then tiled in electrotransferring clamp, in which sponge, filter paper, gel, nitrocellulose membrane, filter paper and sponge were mounted from negative electrode to positive electrode in order. Constant current 350 mA, electrotransferred for 45 min. Electrotransferring membrane to […], the nitrocellulose membrane was taken out, the membrane was washed with TBST for 2 min, sealed with 5% defatted milk powder at room temperature for 1 h, added with first antibody (1:1000) and incubated at 4° C. overnight, the membrane was washed with TBST, 3 times×5 min, then […] second antibody was added, incubated at room temperature for 1 h, washed with TBST, 3 times×5 min, soaked separately with TSM1 and TSM2 for 5 min and 10 min, developed with chromogenic substrates 6.6 μl NBT and 3.3 μl BCIP dissolved in 1 ml of TSM2, after bonds become clear, the reaction was terminated by washing with water. After the end of development, the records were stored by scanning or taking photos."}, "[2]": {"tested_on": "apoptosis stimulation irrelevant to endocytoplasmic reticulum stress", "assay": "Protection against apoptosis stimulation irrelevant to endocytoplasmic reticulum stress", "format": "cell-based"}, "[3]": {"tested_on": "primary cardiac muscle cells induced by TM", "assay": "Cardiomyocyte apoptosis induced by TM, TUNEL detection", "format": "cell-based, Wistar rats", "conditions": "for TUNEL detection (%) cardiomyocyte apoptosis rate: 24 h, n = 6", "procedure": "The primary cardiac muscle cells obtained by the method according to the culture method of primary cardiac muscle cells of Example 1 were added with tunicamycin (TM) on the 4th day to perform interference test. The cells were randomly divided into 5 groups: solvent control group (DMSO), TM interference group (5 μg/ml), Compound of Formula I+TM interference group (10 μM+5 μg/ml), Compound of Formula I interference group ([…]+5 μg/ml), Compound of Formula I interference group ([…]+5 μg/ml).\nIt was 24 h after drug interference, the apoptotic cells were detected by terminal deoxynucleotidyl transferase-mediated biotinylated UTP nick end labeling (TUNEL) method, and the cells were treated according to the specification of kit. The cells treated with 0.1 mg/ml DNase I and growing on a glass slide were used as positive control. 5 or more visual fields were randomly selected under light microscope, the apoptotic cells (brown yellow granules seen in nucleus) among the cells were counted. Apoptosis rat=(number of positively stained nuclei/number of all nuclei)×100%."}, "[4]": {"tested_on": "cardiac muscle cells induced by Tunicamycin (TM)", "assay": "Survival rate of TM-induced cardiac muscle cells detected by MTT method", "format": "cell-based, Wistar rats", "conditions": "for Cell survival rate (%): MTT", "procedure": "(§1) The separation and culture of cardiomyocyte refer to the method of differential adhesion separation (Kreider, A. Messing, H. Doan, S. U. Kim, R. P. Lisak and D. E. Pleasure, Enrichment of Schwann cell cultures from neonatal rat sciatic nerve by differential adhesion, Brain Res 2 (1981), pp. 433-444.), Wistar neonate rats newly born within 24 h were used to obtain primary cardiac muscle cells.\nThe separated cardiac muscle cells were inoculated in an amount of 10^4 cells per well to a 96-well plate, and the volume of each well was 100 μl (marginal wells were filled with sterile PBS). […] After continuous inoculation, each well was added with 20 μl of MTT solution (5 mg/ml, formulated with PBS (pH=7.4), i.e., 0.5% MTT), and the cultivation was continued for 4 h. After the end of cultivation, culture medium in wells was carefully sucked out. Each well was added with 150 μl of DMSO, shaken at a low speed in a shaking table for 10 min, so that the crystal was sufficiently dissolved. The optical density (OD) value of each well was measured at wavelength of 490 nm by enzyme-linked immunoassay instrument, and each well was repeatedly measured for 3 times and the results were recorded. The cell survival rate at each time point was calculated according to: […], and a cell growth curve was drawn by using time as abscissa and optical density as ordinate."}, "[5]": {"tested_on": "primary cardiac muscle cells", "format": "cell-based, Wistar rats", "conditions": "48 h, MTT, normal cells", "procedure": "Animal: newly born Wistar rats, rat age: within 24 h, male and female\nas §1\nThe separated primary culture of cardiac muscle cells as obtained by the above method were inoculated in an amount of 10^4 cells per well to a 96-well plate, and the volume of each well was 100 μl (marginal wells were filled with sterile PBS). After being cultivated in 5% CO2 and 37° C. incubator for 4 d, they were added with the compound of Formula 1 at different concentrations (0.3 μM, 1 μM, 3 μM, 10 μM, 30 μM, 100 μM), 3 double-wells were set for each concentration, at the same time, zero setting wells (culture medium, MTT, DMSO), and control wells (culture medium, DMSO) were also set. After continuous inoculation for 48 h, each well was added with 20 μl of MTT solution (5 mg/ml, formulated with PBS (pH=7.4), i.e., 0.5% MTT), and the cultivation was continued for 4 h. After the end of cultivation, culture medium in wells was carefully sucked out. Each well was added with 150 μl of DMSO, shaken at a low speed in a shaking table for 10 min, so that the crystal was sufficiently dissolved. The optical density (OD) value of each well was measured at wavelength of 550 nm by enzyme-linked immunoassay instrument, and each well was repeatedly measured for 5 times and the results were recorded."}}, "note": "Where two headings read alike, the source gives them in different places. Marks after values point to notes of the source that are not given here.", "data": [{"smiles": "O=C(/C=C/c1ccccc1)NC(NC(=S)Nc1cccc2cccnc12)C(Cl)(Cl)Cl", "note": "(stereo not drawn) [Compound of Formula I, (2E)-3-phenyl-N-[2,2,2-trichloro-1-[[(8-quinolylamino)thiomethyl]amino]ethyl]-2-acrylamide]", "values": [{"measurement": "expression of Cleaved caspase-12", "setting": "[1]; 10, 20, 40 μM + TM 5 μg/ml", "value": "gradually decreases with the increase of the concentration"}, {"measurement": "Caspase-12 expression", "setting": "[1]; different concentrations for 24 h", "value": "no significant change"}, {"measurement": "protection against apoptosis stimulation irrelevant to endocytoplasmic reticulum stress", "setting": "[2]", "value": "does not protect apoptosis stimulation irrelevant to endocytoplasmic reticulum stress"}, {"measurement": "TUNEL detection (%) cardiomyocyte apoptosis rate", "setting": "[3]; 10 μM + TM 5 μg/mL", "value": "25.75 ± 0.97 ^b %"}, {"measurement": "TUNEL detection (%) cardiomyocyte apoptosis rate", "setting": "[3]; 20 μM + TM 5 μg/mL", "value": "24.94 ± 0.82 ^b %"}, {"measurement": "TUNEL detection (%) cardiomyocyte apoptosis rate", "setting": "[3]; 40 μM + TM 5 μg/mL", "value": "21.15 ± 0.85 ^b c %"}, {"measurement": "apoptosis rate in comparison with the TM interference group (TUNEL)", "setting": "[3]; 10, 20, 40 μM, P<0.05", "value": "significant decrease in apoptosis rate"}, {"measurement": "Cell survival rate (%)", "setting": "[4]; 5 μM pretreatment 30 min + TM 5 μg/ml", "value": "82.6106 ± 8.1018", "unit": "%"}, {"measurement": "Cell survival rate (%)", "setting": "[4]; 10 μM pretreatment 30 min + TM 5 μg/ml", "value": "83.8371 ± 8.2608", "unit": "%"}, {"measurement": "Cell survival rate (%)", "setting": "[4]; 20 μM pretreatment 30 min + TM 5 μg/ml", "value": "84.6255 ± 5.5519", "unit": "%"}, {"measurement": "Cell survival rate (%)", "setting": "[4]; 40 μM + TM 5 μg/ml", "value": "85.4139 ± 5.6916", "unit": "%"}, {"measurement": "cell survival rate in comparison with the TM group", "setting": "[4]; pretreatment in various concentrations, p<0.05", "value": "significant increase of cell survival rate"}, {"measurement": "Cardiomyocyte survival rate (%)", "setting": "[5]; 0.3 μM", "value": "98.8562 ± 6.7316^a %"}, {"measurement": "Cardiomyocyte survival rate (%)", "setting": "[5]; 1 μM", "value": "91.6667 ± 7.6257^a %"}, {"measurement": "Cardiomyocyte survival rate (%)", "setting": "[5]; 3 μM", "value": "94.5261 ± 3.7997^a %"}, {"measurement": "Cardiomyocyte survival rate (%)", "setting": "[5]; 10 μM", "value": "102.7778 ± 3.0645^a %"}, {"measurement": "Cardiomyocyte survival rate (%)", "setting": "[5]; 30 μM", "value": "105.8007 ± 3.2639^a %"}, {"measurement": "Cardiomyocyte survival rate (%)", "setting": "[5]; 100 μM", "value": "104.2484 ± 7.3625^a %"}]}]}
